Data reported in ChEMBL document CHEMBL4616724, “Topoisomerase Inhibitors Addressing Fluoroquinolone Resistance in Gram-Negative Bacteria” (J Med Chem, 2020).
≈ marks a conversion by molar mass, not a printed value.

Tests used:
Escherichia coli [1] = assay: Ratio of MIC for antibacterial activity against wild type Escherichia coli ATCC 25922 at pH 5.8 to MIC for antibacterial activity against wild type Escherichia coli ATCC 25922 at pH 7.4; assay type: functional
Pseudomonas aeruginosa [2] = assay: Antibacterial activity against wild type Pseudomonas aeruginosa PAO1 K767 by CLSI-based broth microdilution assay; assay type: functional
Escherichia coli [3] = assay: Antibacterial activity against wild type Escherichia coli ATCC 25922 at pH 5.8 by CLSI-based broth microdilution assay; assay type: functional
Klebsiella pneumoniae = assay: Antibacterial activity against wild type Klebsiella pneumoniae ATCC 43816 by CLSI-based broth microdilution assay; assay type: functional
[4] = Dark toxicity in BALB/c mouse 3T3 cells assessed as reduction in cell viability incubated for 1 hr prior to 50 mins incubation under dark condition followed by replacement of medium and measured after 24 hrs by neutral red uptake assay; assay type: cell-based, NIH3T3; settings: BALB/c 3T3 cells
[5] = Selectivity ratio of MIC for wild type Escherichia coli ATCC 25922 to MIC for Escherichia coli BW25113/JW0451-2 harboring AcrB deletion mutant; assay type: functional
Escherichia coli [6] = assay: Antibacterial activity against Escherichia coli BW25113/JW0451-2 harboring AcrB deletion mutant by CLSI-based broth microdilution assay; assay type: functional
[7] = Photoirradiation factor, ratio of IC50 for BALB/c mouse 3T3 cells under dark condition to IC50 for BALB/c mouse 3T3 cells under 5 J/cm2 sunlight irradiation by neutral red uptake assay; assay type: ADME, cell-based, NIH3T3; settings: BALB/c 3T3 cells, read-out: Ratio IC50
NIH3T3 = assay: Phototoxicity against BALB/c mouse 3T3 cells assessed as reduction in cell viability preincubated for 1 hr followed by 5 J/cm2 UVA sunlight irradiation for 50 mins and subsequent replacement of medium and measured after 24 hrs by neutral red uptake assay; assay type: cell-based; settings: NIH3T3, light or radiation study
Pseudomonas aeruginosa [8] = assay: Antibacterial activity against Pseudomonas aeruginosa K1542/K767 harboring MexB/MexXY deletion mutant by CLSI-based broth microdilution assay; assay type: functional
Pseudomonas aeruginosa [9] = assay: Antibacterial activity against Pseudomonas aeruginosa NB52023 harboring gyrA T83I mutant/ParC S87L mutant by CLSI-based broth microdilution assay; assay type: functional
Escherichia coli [10] = assay: Antibacterial activity against wild type Escherichia coli ATCC 25922 at pH 7.4 by CLSI-based broth microdilution assay; assay type: functional
[11] = Selectivity ratio of MIC for Pseudomonas aeruginosa NB52023 harboring gyrA T83I mutant/ParC S87L mutant to MIC for Pseudomonas aeruginosa K1542/K767 harboring MexB/MexXY deletion mutant; assay type: functional
[12] = Inhibition of recombinant full-length C-terminal His6-tagged Escherichia coli DNA topoisomerase 4 subunit ParC/ParE using kinetoplast DNA as substrate preincubated for 30 mins followed by substrate addition and measured after 1 hr in presence of ATP by size exclusion chromatography
DNA gyrase = DNA gyrase (Escherichia coli, UniProt P0AES4+P0AES6); assay: Inhibition of recombinant full-length C-terminal His6-tagged Escherichia coli DNA gyrase AB supercoiling activity using relaxed DNA as substrate preincubated for 30 mins followed by substrate addition and measured after 2 hrs in presence of ATP by size exclusion HPLC analysis; assay type: protein-complex assay
[13] = n-Octanol-PBS buffer partition coefficient, log D of the compound at pH 7.4 after overnight incubation by LC/UV/qTOF analysis; assay type: physicochemical
[14] = molecular target: Voltage-gated inwardly rectifying potassium channel KCNH2 (Homo sapiens, UniProt Q12809); assay: Inhibition of human ERG expressed in CHOK1 cells by QPatch automated patch-clamp assay; assay type: cell-based, CHO-K1
[15] = Protein binding in CD1 mouse plasma at 10 uM incubated for 4 hrs under shaking condition by LC-MS/MS analysis; assay type: ADME, cell-free; settings: read-out: PPB (converted)
[16] = Protein binding in pooled human plasma at 10 uM incubated for 4 hrs under shaking condition by LC-MS/MS analysis; assay type: ADME, cell-free; settings: read-out: PPB (converted)
[17] = Intrinsic clearance in human liver microsomes at 1 uM in presence of NADPH and measured up to 30 mins by LC-MS/MS analysis; assay type: ADME, Microsome; settings: read-out: CLH
[18] = Intrinsic clearance in rat liver microsomes at 1 uM in presence of NADPH and measured up to 30 mins by LC-MS/MS analysis; assay type: ADME, Microsome; settings: read-out: CLH
[19] = Efflux ratio of apparent permeability in human Caco2 cells at 10 uM after 2 hrs by LC-MS/MS analysis; assay type: ADME, cell-based; settings: Caco-2
[20] = Protein binding in Sprague-Dawley rat plasma at 10 uM incubated for 4 hrs under shaking condition by LC-MS/MS analysis; assay type: ADME, cell-free; settings: read-out: PPB (converted)
[21] = Solubility of the compound in pH 7 PBS incubated for 24 hrs under gently shaking condition by UPLC/UV/CLND/MS analysis; assay type: physicochemical; settings: for solubility at 24 h: PBS, pH 7
Escherichia coli [22] = assay: Bacteriostatic activity against Escherichia coli ATCC 25922 infected in mouse model of neutropenic thigh infection assessed as static dose compound administered subcutaneously 2 hrs post infection and measured after 24 hrs by serial dilution method; assay type: functional
[23] = Dose normalized Cmax in rat at 10 mg/kg, po measured up to 24 hrs by LC-MS/MS analysis; assay type: ADME, organism-based; settings: in vivo
in vivo = settings: mouse, po, 10 mg/kg
[24] = Tmax in rat at 10 mg/kg, po measured up to 24 hrs by LC-MS/MS analysis; assay type: ADME, organism-based; settings: in vivo
[25] = Dose normalized AUC in rat at 10 mg/kg, po measured up to 24 hrs by LC-MS/MS analysis; assay type: ADME, organism-based; settings: in vivo
[26] = Dissociation constant, pKa of the compound by UV metric method; assay type: physicochemical

Voltage-gated inwardly rectifying potassium channel KCNH2, sequence (Q12809 whole entry): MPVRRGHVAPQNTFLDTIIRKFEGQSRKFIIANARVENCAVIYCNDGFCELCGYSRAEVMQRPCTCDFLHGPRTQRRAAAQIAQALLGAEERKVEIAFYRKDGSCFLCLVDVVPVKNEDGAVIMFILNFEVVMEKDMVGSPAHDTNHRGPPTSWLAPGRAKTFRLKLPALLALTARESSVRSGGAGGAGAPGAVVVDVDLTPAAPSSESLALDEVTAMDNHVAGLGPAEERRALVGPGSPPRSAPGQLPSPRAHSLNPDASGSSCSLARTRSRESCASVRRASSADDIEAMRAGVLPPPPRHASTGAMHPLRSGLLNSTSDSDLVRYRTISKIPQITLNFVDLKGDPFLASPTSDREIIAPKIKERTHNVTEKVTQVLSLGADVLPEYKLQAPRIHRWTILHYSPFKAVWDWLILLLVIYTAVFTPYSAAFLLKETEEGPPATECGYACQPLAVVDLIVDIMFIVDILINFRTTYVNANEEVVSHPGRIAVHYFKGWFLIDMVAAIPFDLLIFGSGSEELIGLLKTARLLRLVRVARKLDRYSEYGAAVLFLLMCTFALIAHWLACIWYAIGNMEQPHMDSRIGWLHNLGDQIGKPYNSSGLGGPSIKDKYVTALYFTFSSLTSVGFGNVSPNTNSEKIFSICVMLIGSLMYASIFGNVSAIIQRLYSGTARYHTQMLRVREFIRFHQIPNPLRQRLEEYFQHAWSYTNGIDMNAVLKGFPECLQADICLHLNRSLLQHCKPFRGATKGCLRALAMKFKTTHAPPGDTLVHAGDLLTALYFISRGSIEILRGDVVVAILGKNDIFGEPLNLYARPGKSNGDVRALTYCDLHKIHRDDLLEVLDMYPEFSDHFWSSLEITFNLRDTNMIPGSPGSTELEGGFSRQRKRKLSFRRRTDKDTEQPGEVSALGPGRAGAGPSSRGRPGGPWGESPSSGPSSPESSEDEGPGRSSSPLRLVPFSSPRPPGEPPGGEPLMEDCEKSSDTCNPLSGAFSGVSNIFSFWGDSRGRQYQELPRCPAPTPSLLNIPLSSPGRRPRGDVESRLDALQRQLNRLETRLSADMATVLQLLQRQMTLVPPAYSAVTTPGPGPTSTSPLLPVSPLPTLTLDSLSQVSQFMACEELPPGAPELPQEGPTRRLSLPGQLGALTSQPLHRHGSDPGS

Row | Compound | Ratio (Escherichia coli [1]) | MIC (Pseudomonas aeruginosa [2]) [µg/mL] | MIC (Escherichia coli [3]) [µg/mL] | MIC (Klebsiella pneumoniae) [µg/mL] | MIC (Escherichia coli [6]) [µg/mL] | selectivity ratio [7] | MIC (Pseudomonas aeruginosa [8]) [µg/mL] | MIC (Pseudomonas aeruginosa [9]) [µg/mL] | MIC (Escherichia coli [10]) [µg/mL] | IC50 [12] [µM] | also measured
1 | Cc1c(N2CC3CC3(N)C2)c(F)cc2c(CN)cc(=O)n(C3CC3)c12 (centres undefined) | 128 | 4 (≈ 11.7 µM) | 32 (≈ 93.5 µM) | 0.5 (≈ 1.46 µM) | 0.06 (≈ 0.175 µM) | 104 | 0.5 (≈ 1.46 µM) | 1 (≈ 2.92 µM) | 0.25 (≈ 0.73 µM) | – | IC50 at 110 min [4]: 316 µM; Selectivity ratio [5]: 4; IC50 (NIH3T3): 3.03 µM
2 | Cc1c(N2CC[C@@H]([C@H](C)N)C2)c(F)cc2cc(C(=O)O)c(=O)n(C3CC3)c12 | – | – | – | 8 (≈ 21.4 µM) | – | – | – | 64 (≈ 171 µM) | 4 (≈ 10.7 µM) | 4.8 | Selectivity ratio [11]: 8; IC50 (DNA gyrase): 2.91 µM
3 | Cc1c(N2CC[C@@H]([C@H](C)N)C2)c(F)cc2c(CN)cc(=O)n(C3CC3)c12 | >=64 | 2 (≈ 5.58 µM) | > 32 | 4 (≈ 11.2 µM) | 0.06 (≈ 0.167 µM) | – | 0.5 (≈ 1.39 µM) | 2 (≈ 5.58 µM) | 1 (≈ 2.79 µM) | – | logD [13]: -0.29; IC50 [14]: > 300 µM; fraction unbound at 4 h, 10 µM [15]: 0.44; fraction unbound at 4 h, 10 µM [16]: 0.83; Selectivity ratio [5]: 16; microsomal CLint at 1 µM [17]: 14 µL/min/mg; microsomal CLint at 1 µM [18]: < 7.7 µL/min/mg; efflux ratio at 2 h, 10 µM [19]: 18; fraction unbound at 4 h, 10 µM [20]: 0.82; solubility at 24 h [21]: > 555 µg/mL
4 | C[C@@H]1CN(c2c(F)c(N)c3c(=O)c(C(=O)O)cn(C4CC4)c3c2F)C[C@H](C)N1 [SPARFLOXACIN] | – | – | – | – | – | > 82 | – | – | – | – | –
5 | Cc1c(-c2cc(F)c(N)cc2F)c(F)cc2c(CN)cc(=O)n(C3CC3)c12 | – | 8 (≈ 21.4 µM) | – | 1 (≈ 2.68 µM) | ≤ 0.03 | – | 2 (≈ 5.36 µM) | 8 (≈ 21.4 µM) | 0.25 (≈ 0.67 µM) | – | solubility ([21]; buffer, pH 7, 24 h): Insoluble
6 | Cc1c(N2CC[C@H](N)C2)c(F)cc2c(CN)cc(=O)n(C3CC3)c12 | >=32 | 4 (≈ 12.1 µM) | > 32 | 2 (≈ 6.05 µM) | 0.5 (≈ 1.51 µM) | 1.7 | 0.5 (≈ 1.51 µM) | 2 (≈ 6.05 µM) | 2 (≈ 6.05 µM) | – | IC50 (NIH3T3): 288 µM
7 | O=C(O)c1cn(C2CC2)c2cc(N3CCNCC3)c(F)cc2c1=O [CIPROFLOXACIN] | – | – | – | – | – | – | – | – | – | 2.71 | Activity (Escherichia coli [22]): 6.4 mg/kg/day; Cmax/dose [23]: 0.14 µM/mg/kg; Tmax at 24 h (in vivo): 15 min; Tmax [24]: 30 min; AUC/dose [25]: 0.29 µM·h/mg/kg
8 | Cc1c(N2CC[C@@H]([C@H](C)N)C2)c(F)cc2c(C(=O)O)cc(=O)n(C3CC3)c12 | – | > 32 | – | > 32 | – | – | > 32 | > 32 | > 32 | – | pKa [26]: 2.2
9 | Cc1c(N2CC[C@@H]([C@H](C)N)C2)c(F)cc2ccc(=O)n(C3CC3)c12 | – | 16 (≈ 48.6 µM) | 16 (≈ 48.6 µM) | 4 (≈ 12.1 µM) | 0.06 (≈ 0.182 µM) | – | 4 (≈ 12.1 µM) | 8 (≈ 24.3 µM) | 1 (≈ 3.04 µM) | 0.39 | logD [13]: 0.74; fraction unbound at 4 h, 10 µM [15]: 0.19; fraction unbound at 4 h, 10 µM [16]: 0.1; microsomal CLint at 1 µM [17]: < 7.7 µL/min/mg; microsomal CLint at 1 µM [18]: 10 µL/min/mg; fraction unbound at 4 h, 10 µM [20]: 0.25; IC50 (DNA gyrase): 0.43 µM; solubility at 24 h [21]: 498 µg/mL (≈ 1510 µM)
10 | Cc1c(N2CC[C@@H]([C@H](C)N)C2)c(F)cc2c(O)cc(=O)n(C3CC3)c12 | – | > 32 | – | > 32 | 16 (≈ 46.3 µM) | – | > 32 | > 32 | > 32 | – | pKa [26]: 5.7
